{"source": "patent US20260287575A1", "about": "“LABEL-FREE METHODS FOR ASSESSING CELL STATE IN A BIOLOGICAL SAMPLE” (priority 2023, published 2026)", "key": {"[1]": {"test_system": "CT26 live tumor fragments", "experiment": "FLIM lifetime metabolic ratio (LMR) with ground truth dyes (PI, caspase 3/7) in CT26 live tumor fragments", "assay_type": "cell-based, murine", "settings": "for shift in the LMR relative to time zero healthy tissue: normalized LMR; for mode of cell death induced: confirmed with Caspase 3/7 and PI probes", "method": "Live tumor fragments (LTFs) from flank expressed murine syngeneic CT26 tumors were used to assess cell state using a combination of OCM/dOCM and FLIM as described herein.\nCT26 tumors were excised, bisected, and cut into 300×300×300 μm LTFs. These fragments were sorted into 18-well plates for analysis by microscopy. Fragments were incubated at 37° C. in 5% CO2 in non-phenol red containing RPMI for up to four hours before being placed in the microscope. During imaging the sample was maintained in a stage-top incubator at 37° C., 5% CO2, and 95% humidity. Images were taken using a custom four channel multi-photon microscope built on a modified Zeiss Axiovert platform using adapted Bruker components, the PrairieView software package, and electronic components to drive and control the scanning microscope. FLIM data was acquired using an 8 channel Swabian instruments time tagger.\nFLIM images were acquired at 50 micron and 75 micron depths into the tissue. Live tumor fragment structure and metabolic status were assessed based on the intrinsically fluorescent metabolic co-factors […] (NAD(P)H), excited at 740 nm, and flavin adenine dinucleotide (FAD), excited at 880 nm. […] LMR histogram data from the fragments was normalized by taking the mode of the resultant histogram data at baseline from healthy tissue and setting this value to 0 across the time course. Data derived from the NAD(P)H, and FAD signals were used to segment the image into individual Voronoi cells seeded from nuclear segmentation. The normalized LMR value was determined for each Voronoi cell.\nTo qualify observed shifts in the LMR, the ground truth nuclear localizing dyes for cleaved caspase 3/7 activity (Invitrogen) or necrosis (propidium iodide) were added. Voronoi cells that stained positive for propidium iodide were marked as dead and those that were not stained with PI were marked as live.\nCell death via apoptosis was induced using staurosporine. […] (FIG. 8). […] Probe data from Caspase 3/7 and P1 confirmed the shift for LMR values indicating live tissue vs. dead tissue. Cell death via necroptosis was induced using Shikonin. […] PI confirmed the necroptosis signature.\nTo validate the imaging routine in a model with clinical relevancy, CT26 mLTFs were treated with a combination of […] (3MA) and doxorubicin over a duration of 48 hours (FIG. 10). For this, mLTFs were imaged every 24 hours following treatment for longitudinal assessment of chemotherapeutic efficacy. Linear metabolic shift values obtained in separate CT26 control experiments were applied to Voronoi segmented images to classify individual cells as alive or dead. Data were plotted in a time course indicating the activity of the drug combination."}, "mouse liver": {"test_system": "mouse liver", "experiment": "Multimodal dOCM and FLIM imaging of tissue viability in mouse liver after shikonin injection", "assay_type": "cell-based", "settings": "100 nL, 6 μM, injected into the center of the tissue; PI staining", "method": "100 nL shikonin (6 μM) was injected into the center of the tissue to create necroptosis indicted by the white arrow. Scale bar: 100 μm. […] LMR values are indicated by the color bar."}, "mouse liver slice": {"test_system": "mouse liver slice", "experiment": "dOCM imaging of live and dead cells in a mouse liver slice after local staurosporine injection", "assay_type": "cell-based", "settings": "local injection of 200 nL, 2 μM in DMSO; 300 μm thick liver slice", "text": "A 300 μm thick slice of liver is shown. […] Live cells in the live region (lower part in the xy plane) are highlighted in the dOCM image volume. The live cells show high contrast compared to dead regions in the three orthogonal views (xy, yz, and xz planes). The positions of the yz and xz slices are indicated by the yellow lines in the xy plane. Scale bar: 100 μm.\nLive cells were visible in the dOCM image volume. […] Good correlation is observed between the dOCM signal and the expected LMR signatures in this monolithic tissue (FIG. 3). […] In those areas, the dOCM is used to establish a ground truth for living tissue that can in turn be used to qualify the LMR and set specific discreet baseline LMR values for living tissue in these regions. This is as opposed to using a generic, specific value determined with an assumption that the tissue is monolithic."}, "[2]": {"test_system": "primary human lung cancer tissue", "experiment": "Combined dOCM and FLIM imaging of tissue viability in a primary human lung cancer tissue slice", "assay_type": "cell-based", "settings": "10 μM", "method": "(§1) FIG. 16 presents multimodal imaging of tissue viability with primary human lung cancer tissue using combined dOCM and FLIM. (a) dOCM and LMR images of a human lung cancer tissue slice. (b) dOCM and LMR images of another lung tissue slice from the same sample. The metabolic state of this sample is different from the tissue slice in (a). (c) The tissue slice in (a) was treated with 10 μM staurosporine. The slice was imaged 24 hours after treatment. […] Scale bar: 100 μm.\nas §1, with “bar” for “bar:”"}}}
{"smiles": "Cn1cnc(N)c2ncnc1-2", "note": "[3-MA]", "values": [{"measurement": "PI staining", "setting": "[1]; CT26 live tumor fragment (FIG. 6)", "result": "dead cells"}, {"measurement": "LMR values of PI-stained cells", "setting": "[1]; CT26 live tumor fragment treated and stained with PI (FIG. 6)", "result": "relatively uniform low LMR values"}]}
{"smiles": "CC(C)=CC[C@@H](O)C1=CC(=O)c2c(O)ccc(O)c2C1=O", "note": "[Shikonin]", "values": [{"measurement": "shift in the LMR relative to time zero healthy tissue", "setting": "[1]; CT26 LTFs", "result": "large, reproducible shift to the left"}, {"measurement": "Caspase 3/7 staining", "setting": "[1]; CT26 LTFs, stressed tissue", "result": "little to no Caspase 3/7 staining"}, {"measurement": "mode of cell death induced", "setting": "[1]; CT26 LTFs", "result": "necroptosis"}, {"measurement": "mode of cell death created", "setting": "mouse liver", "result": "necroptosis"}]}
{"smiles": "CN[C@@H]1C[C@H]2O[C@@](C)([C@@H]1OC)n1c3ccccc3c3c4c(c5c6ccccc6n2c5c31)C(=O)NC4", "note": "[staurosporine]", "values": [{"measurement": "shift in the LMR relative to time zero healthy tissue", "setting": "[1]; CT26 LTFs", "result": "large, reproducible shift to the right"}, {"measurement": "mode of cell death induced", "setting": "[1]; CT26 LTFs", "result": "apoptosis"}, {"measurement": "tissue viability by dOCM", "setting": "mouse liver slice", "result": "caused tissue death"}, {"measurement": "cell state indicated by NADH and FAD phasor plots", "setting": "[2]; 24 hours after treatment", "result": "undergoing apoptosis"}, {"measurement": "metabolic state (LMR) compared to that prior to treatment", "setting": "[2]; 24 hours after treatment", "result": "shifted"}, {"measurement": "viable cells revealed by dOCM", "setting": "[2]; imaged 24 hours after treatment", "result": "Less viable cells"}]}
